A melting point compilation (Tetko et al.; mined from patent text by program, amines drawn as free bases though some values may be those of a salt)

Row | melting point [°C] | Structure (SMILES)
1 | 115 to 116 | COC(=O)c1ccccc1SC1=C(O)CC(CCC(C)C)(c2ccccc2)OC1=O (configuration not stated)
2 | 111 to 112 | NS(=O)(=O)Oc1ccc(C(F)(F)F)cc1
3 | 45 to 49 | CCCCC#CCCOc1c(I)cc(I)cc1I
4 | 46 to 47 | O=Cc1cccc([N+](=O)[O-])c1F
5 | 167 to 168 | C=C(c1ccc(C(=O)OC)cc1)c1cc2c(cc1C)C(C)(C)CCC2(C)C
6 | 107 to 108 | NC(CO)C(c1ccccc1)c1ccccc1 (configuration not stated)
7 | 83 to 87 | COC(=O)Nc1ccc(OC)c(OC)c1
8 | 122 to 124 | CSc1ccc(C(=O)CCC#N)cc1
9 | 251 to 255 | NC(=O)Cc1ccc(-c2nc3ccccc3o2)cc1
10 | 182 to 183 | CCCN(Cc1ccc(-c2ccccc2-c2nc(=O)o[nH]2)cc1)c1nn(C)cc1C(=O)OCC
11 | 116 to 120 | CC(C)(C)NS(=O)(=O)c1ccc(S(N)(=O)=O)s1
12 | 137 to 138 | CCOCc1nc2c(N)nc3ccccc3c2n1CC1CCN(Cc2ccccc2)O1 (configuration not stated)
13 | 117 to 118 | COC(=O)CCC(=O)c1ccc(-c2ccc(Cl)s2)cc1
14 | 113 to 120 | OC(c1ccc(OCc2ccccc2)cc1)c1ccc(OCc2ccccc2)cc1
15 | 195 to 204 | O=c1[nH]c2ccc(C3=NOC(CN4CCC(O)(Cc5ccc(F)cc5)CC4)C3)cc2o1 (configuration not stated)
16 | 145 to 146 | CC(C)c1ccccc1SC1=C(O)CC(CCCCC(=O)O)(c2ccccc2)OC1=O (configuration not stated)
17 | 224 to 226 | O=C1CCC(N2Cc3c(OCc4ccc(Cl)cc4)cccc3C2=O)C(=O)N1 (configuration not stated)
18 | 94 to 95 | CCCOc1cc(CCCOc2nn(Cc3ccccc3)cc2CC(=O)O)n(Cc2ccc(F)cc2F)n1
19 | 170 to 171 | CCOC(=O)c1nc2ccc(Cl)nn2c1C
20 | 87 to 89 | C=CCOc1ccc(CC(=O)NCCCC)cc1
21 | 147 to 149 | O=C1NCCc2c(-c3cccc(Cl)c3)[nH]c3cccc1c23
22 | 221 to 222 | COc1c(N2CCN(C)CC2)c(F)cc2c(=O)c(C(=O)O)cn(C3CC3)c12
23 | 92 to 94 | CC(=Cc1ccc(C(C)(C)C)cc1)C(=O)NC(C)c1ccc(NS(C)(=O)=O)c(F)c1 (configuration not stated)
24 | 100 to 101 | CN1C(=O)Cc2ccc(F)cc21

Row | melting point [°C] | Structure (SMILES)
25 | 113 to 115 | COc1ccc2c(ccn2-c2cccc(C#N)c2)c1
26 | 227 to 229 | CCOC(=O)c1cn(C2CC2)c2cc(Cl)c(F)c(Cl)c2c1=O
27 | 121 | O=C(CNc1ccc(Cl)cc1)NCCc1ccc(OCc2ccccc2)c(OCc2ccccc2)c1
28 | 133 to 134 | Cc1ncccc1NC(=NC#N)NC(NC(=O)CCCCc1ccccc1)C(C)(C)C (configuration not stated)
29 | 97 | COc1cc(C(=O)c2ccc(C(F)(F)F)cc2)ccc1O
30 | 239 to 240 | CCOC(=O)C(=O)Nc1ccc2c(c1)OCC(=O)N2
31 | 115 to 117 | COC(=O)c1cc(-n2c(OC)nc(C(F)(F)F)cc2=O)c(F)cc1Cl
32 | 82 | Cc1ccc(C=C2CCN(C(=O)c3nc4ccc(O)cc4[nH]3)CC2)cc1
33 | 207 to 208 | O=c1cc(S)oc2ccccc12
34 | 97.5 | C=CCO[C@H]1[C@@H](OCc2ccccc2)[C@@H](OCc2ccccc2)[C@H](OCc2ccccc2)[C@@H](OCc2ccccc2)[C@]1(O)CC=C (racemic)
35 | 99 | CCSc1ccc2c(c1)C(Cl)Cc1ccc(F)cc1S2 (configuration not stated)
36 | 166 to 167 | COc1ccc(CCCC(=O)Nc2c(C)c(C)c3c(c2C)C(c2ccc(C)cc2)C(C)(C)O3)cc1 (configuration not stated)
37 | 151 to 152 | O=c1c(N2CCCNCC2)nc2cc(F)ccc2n1-c1ccccc1
38 | 172 to 173 | COc1cc(OCCOc2ccccc2)c2c(=O)[nH]c(-c3cc(C)nc(C)c3)nc2c1
39 | 132 | COc1cnc(C(=O)Cc2c(Cl)cncc2Cl)cc1OC1CCCC1
40 | 170 to 171 | COc1cccc(N=C(NC#N)Oc2ccccc2)c1
41 | 156 to 157 | N#CC12CC3CC(CC(Cl)(C3)C1)C2
42 | 215 to 217 | O=C1CCC(N2Cc3c(OCc4ccc(CN5CCN(C(=O)C6CCCCC6)CC5)cc4)cccc3C2=O)C(=O)N1 (configuration not stated)
43 | 248 to 250 | O=C1CCC(N2Cc3c(NCc4ccco4)cccc3C2=O)C(=O)N1 (configuration not stated)
44 | 101 to 102 | CCCc1nn(-c2ccc(C(F)(F)F)cn2)cc1CCCOc1ccc(CC(=O)O)cc1
45 | 165 | O=C(c1ccc(F)cc1)c1ccc2n1CCC2C(=O)O (configuration not stated)
46 | > 270 | Nc1cc(-n2cc(C(=O)O)c(=O)c3cc(F)c(Cl)nc32)c(F)cc1Cl
47 | 85 to 86 | CCOC(=O)Cc1c(CCc2ccc(OC)cc2)oc2ccc(C#N)cc12
48 | 126 to 132 | CC(C)(C)NC(=O)[C@@H]1C[C@H](Cl)CN1C(=O)[C@@H](O)[C@H](Cc1ccccc1)NC(=O)[C@H](CC(N)=O)NC(=O)OC(C)(C)C

Row | melting point [°C] | Structure (SMILES)
49 | 161 to 164 | O=c1ccc(C(F)(F)F)cn1-c1ccc(NCCO)cc1Cl
50 | 162 to 164 | NC(=O)N(O)Cc1cc(Br)cs1
51 | 201 to 209 | COc1ccc(OC)c(S(=O)(=O)n2c(CCCC(=O)O)cc3cc(Cl)ccc32)c1
52 | 130 | CCCc1cc(C(O)(CC)CC)ccc1-c1cc(O)ccc1CC
53 | 173 to 175 | CN1C(=O)CC[C@]2(C)c3ccc(C=Cc4ccccc4)cc3CC[C@@H]12
54 | 79 to 81 | BrCCCCCCOc1ccc(C2=NCCO2)cc1
55 | 227 to 235 | O=C(Cc1ccc2ccccc2c1)Nc1cc(-c2ccncc2)[nH]n1
56 | 188 | Clc1cc2c(cc1Cn1c(C3OCCO3)nc(Br)c1Br)OCO2
57 | 106 to 107 | Cc1cc(C)nc(S(=O)(=O)c2ccccc2)c1
58 | 226 to 232 | Cn1ncnc1-c1cc(S(C)(=O)=O)c2[nH]c(=O)ccc2c1
59 | 175 to 176 | O=C1NC(=O)C(CCc2ccc(O)cc2)S1 (configuration not stated)
60 | 130 to 133 | C[C@@H](n1cnc2cc(N3CCN(c4ccc(Cl)cc4)CC3)c(F)cc2c1=O)[C@](O)(Cn1cncn1)c1ccc(F)cc1F
61 | 131 to 132 | COc1ccc(N2C[C@](C)(CO)OC2=O)cc1
62 | 179 to 181 | CC(C)n1nc(C(=O)NCC2CCN(CCc3ccc(C(=O)O)cc3)CC2)c2ccccc21
63 | 297 to 299 | Cc1cc(C)c2c(n1)Nc1ccccc1NC2=O
64 | 197 to 198 | COc1ccc(S(=O)(=O)N2C(=O)[C@@](c3ccccc3OC)(N3C[C@H](OC(=O)C4CCCCC4)C[C@H]3C(=O)N(C)C)c3cc(Cl)ccc32)c(OC)c1
65 | 183 | CC(C)(C)OC(=O)N[C@@H](Cc1ccccc1Cl)C(=O)NC1CCC(Nc2cccc3c2C(=O)c2ccccc2C3=O)CC1 (some centres not stated)
66 | 130 | O=[N+]([O-])c1ccc(O)c(-c2cccs2)c1
67 | 125 to 126 | OC[C@@H](O)COc1ccc(OCc2ccccc2)cc1
68 | 240 | O=C(CCN1CCCCC1)Nc1ccc2c(c1)C(=O)c1cc(NC(=O)CCN3CCCCC3)ccc1C2=O
69 | 139 to 141 | O=c1c(-c2ccccc2)ccc2n1CCSc1ccsc1-2
70 | 72 to 75 | N#CCCCCc1cccc2cncn12

Row | Structure (SMILES) | melting point [°C]
71 | [N-]=[N+]=Nc1cc(OCCO)ncn1 | 49 to 50
72 | C=CCNC(=S)NNCC1CC2c3cccc4[nH]cc(c34)CC2N(C)C1 (configuration not stated) | 207 to 208
